Measurements taken from US10351561B2, “Pyrazolo[3,4-b]pyridines and imidazo[1,5-b]pyridazines as PDE1 inhibitors” (H. Lundbeck A/S, priority 2016, dated 2019).

Legend:
Assay type in all cases: biochemical
PDE1C = PDE1C (Homo sapiens, UniProt Q14123); test: PDE1 inhibition assay (PDE1C), SPA with tritium labelled cAMP; conditions: 15 nM tritium labelled cAMP, 1 hr at room temperature, SPA beads
Description: (§1) PDE1A, PDE1B and PDE1C assays were performed as follows: the assays were performed in 60 μL samples containing a fixed amount of the PDE1 enzyme (sufficient to convert 20-25% of the cyclic nucleotide substrate), a buffer (50 mM HEPES (4-(2-hydroxyethyl)-1-piperazineethanesulfonic acid) pH 7.6; 10 mM MgCl2; 0.02% Tween20), 0.1 mg/ml BSA (bovine serum albumin), 15 nM tritium labelled cAMP and varying amounts of inhibitors. Reactions were initiated by addition of the cyclic nucleotide substrate, and reactions were allowed to proceed for 1 hr at room temperature before being terminated through mixing with 20 μL (0.2 mg) yttrium silicate SPA beads (PerkinElmer). The beads were allowed to settle for 1 hr in the dark before the plates were counted in a Wallac 1450 Microbeta counter. The measured signals were converted to activity relative to an uninhibited control (100%) and IC50 values were calculated using XIFit (model 205, IDBS).

PDE1A = PDE1A (Homo sapiens, UniProt P54750); test: PDE1 inhibition assay (PDE1A), SPA with tritium labelled cAMP; conditions: 15 nM tritium labelled cAMP, 1 hr at room temperature, SPA beads
Description: as §1

PDE1B = PDE1B (Homo sapiens, UniProt Q01064); test: PDE1 inhibition assay (PDE1B), SPA with tritium labelled cAMP; conditions: 15 nM tritium labelled cAMP, 1 hr at room temperature, SPA beads; read-out: PDE1B, IC50
Description: Reactions were initiated by addition of the cyclic nucleotide substrate, and reactions were allowed to proceed for 1 hr at room temperature before being terminated through mixing with 20 μL (0.2 mg) yttrium silicate SPA beads (PerkinElmer).

Chain of PDE1A (P54750 whole entry): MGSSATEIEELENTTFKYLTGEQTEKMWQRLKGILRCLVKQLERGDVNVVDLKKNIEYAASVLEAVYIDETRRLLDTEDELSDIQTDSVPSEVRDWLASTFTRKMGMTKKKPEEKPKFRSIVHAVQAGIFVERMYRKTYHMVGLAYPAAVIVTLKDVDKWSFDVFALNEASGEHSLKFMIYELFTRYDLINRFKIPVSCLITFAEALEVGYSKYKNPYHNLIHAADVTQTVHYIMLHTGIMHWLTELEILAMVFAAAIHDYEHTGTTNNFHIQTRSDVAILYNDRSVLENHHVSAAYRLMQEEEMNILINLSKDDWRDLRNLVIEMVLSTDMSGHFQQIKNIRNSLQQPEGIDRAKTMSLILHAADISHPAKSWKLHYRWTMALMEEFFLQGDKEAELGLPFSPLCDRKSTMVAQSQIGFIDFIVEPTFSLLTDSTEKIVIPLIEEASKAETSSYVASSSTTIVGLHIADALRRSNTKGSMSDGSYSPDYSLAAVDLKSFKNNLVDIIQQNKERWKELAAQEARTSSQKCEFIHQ
Chain of PDE1B (Q01064 whole entry): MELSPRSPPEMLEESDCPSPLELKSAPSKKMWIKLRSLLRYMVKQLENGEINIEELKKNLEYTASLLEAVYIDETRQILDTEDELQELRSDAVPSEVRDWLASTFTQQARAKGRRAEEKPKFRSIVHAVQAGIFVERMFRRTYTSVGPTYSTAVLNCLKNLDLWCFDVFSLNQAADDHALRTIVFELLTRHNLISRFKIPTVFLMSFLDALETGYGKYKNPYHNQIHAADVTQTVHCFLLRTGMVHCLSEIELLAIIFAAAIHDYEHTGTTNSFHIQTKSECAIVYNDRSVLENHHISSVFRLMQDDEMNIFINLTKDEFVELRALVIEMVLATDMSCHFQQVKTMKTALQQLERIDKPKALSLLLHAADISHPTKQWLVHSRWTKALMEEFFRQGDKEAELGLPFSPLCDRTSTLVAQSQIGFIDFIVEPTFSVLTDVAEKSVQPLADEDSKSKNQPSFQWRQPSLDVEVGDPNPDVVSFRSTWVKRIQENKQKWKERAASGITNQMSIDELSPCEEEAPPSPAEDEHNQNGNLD
Chain of PDE1C (Q14123 whole entry): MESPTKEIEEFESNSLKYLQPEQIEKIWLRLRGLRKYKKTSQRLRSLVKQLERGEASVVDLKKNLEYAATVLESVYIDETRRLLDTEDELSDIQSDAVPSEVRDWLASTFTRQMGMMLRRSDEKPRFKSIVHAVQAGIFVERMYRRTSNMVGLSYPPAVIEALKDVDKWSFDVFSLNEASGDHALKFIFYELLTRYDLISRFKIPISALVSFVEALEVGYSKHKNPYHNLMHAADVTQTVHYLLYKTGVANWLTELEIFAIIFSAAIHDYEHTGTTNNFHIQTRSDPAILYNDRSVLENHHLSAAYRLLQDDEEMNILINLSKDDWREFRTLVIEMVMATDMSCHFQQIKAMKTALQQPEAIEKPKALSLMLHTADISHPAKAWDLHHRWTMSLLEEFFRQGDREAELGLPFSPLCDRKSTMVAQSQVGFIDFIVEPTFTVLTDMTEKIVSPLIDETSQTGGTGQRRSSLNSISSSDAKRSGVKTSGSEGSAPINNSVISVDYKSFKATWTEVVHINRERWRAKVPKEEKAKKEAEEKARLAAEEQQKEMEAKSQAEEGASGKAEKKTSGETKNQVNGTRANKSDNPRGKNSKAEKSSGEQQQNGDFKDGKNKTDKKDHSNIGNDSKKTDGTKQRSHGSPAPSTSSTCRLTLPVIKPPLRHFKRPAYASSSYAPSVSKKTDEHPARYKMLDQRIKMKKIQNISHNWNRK

| IC50 (PDE1C) | IC50 (PDE1A) | IC50 (PDE1B) | Compound |
| --- | --- | --- | --- |
| 24 nM | 38 nM | 5.1 nM | CCOc1ncccc1-c1cc(NCc2cnn(C)n2)c2c(C(C)C)nc(C)n2n1 [Example 44, 2-(2-ethoxy-3-pyridyl)-5-isopropyl-7-methyl-N-[(2-methyltriazol-4-yl)methyl]imidazo[1,5-b]pyridazin-4-amine] |
| 77 nM | 50 nM | 4 nM | CCOc1ncccc1-c1cc(NCc2ncccn2)c2c(C(C)C)nn(C)c2n1 [Example 36, 6-(2-ethoxy-3-pyridyl)-3-isopropyl-1-methyl-N-(pyrimidin-2-ylmethyl)pyrazolo[3,4-b]pyridin-4-amine] |
| 16 nM | 17 nM | 1.8 nM | CCOc1ncccc1-c1cc(NCc2cnn(C)c2)c2c(C(C)C)nc(C)n2n1 [Example 22, 2-(2-ethoxy-3-pyridyl)-5-isopropyl-7-methyl-N-[(1-methylpyrazol-4-yl)methyl]imidazo[1,5-b]pyridazin-4-amine] |
| 19 nM | 7.8 nM | 2.7 nM | CCCOc1nnccc1-c1cc(NCc2ncn(C)n2)c2c(C(C)C)nn(C)c2n1 [Example 67, 3-isopropyl-1-methyl-N-[(1-methyl-1,2,4-triazol-3-yl)methyl]-6-(3-propoxypyridazin-4-yl)pyrazolo[3,4-b]pyridin-4-amine] |
| 13 nM | 14 nM | 1.8 nM | CCOc1ncccc1-c1cc(NCc2ccn(C)n2)c2c(C(C)C)nc(C)n2n1 [Example 24, 2-(2-ethoxy-3-pyridyl)-5-isopropyl-7-methyl-N-[(1-methylpyrazol-3-yl)methyl]imidazo[1,5-b]pyridazin-4-amine] |
| 59 nM | 58 nM | 5.5 nM | CCOc1cnccc1-c1cc(NCc2ncn(C)n2)c2c(C(C)C)nn(C)c2n1 [Example 68, 6-(3-ethoxy-4-pyridyl)-3-isopropyl-1-methyl-N-[(1-methyl-1,2,4-triazol-3-yl)methyl]pyrazolo[3,4-b]pyridin-4-amine] |
| 19 nM | 8.9 nM | 1.1 nM | CCOc1ncccc1-c1cc(NCc2noc(C)n2)c2c(C(C)C)nn(C)c2n1 [Example 5, 6-(2-ethoxy-3-pyridyl)-3-isopropyl-1-methyl-N-[(5-methyl-1,2,4-oxadiazol-3-yl)methyl]pyrazolo[3,4-b]pyridin-4-amine] |
| 2.6 nM | 2 nM | 0.28 nM | CCOc1ncccc1-c1cc(NCc2ncn(C)n2)c2c(C(C)C)nc(C)n2n1 [Example 11, 2-(2-ethoxy-3-pyridyl)-5-isopropyl-7-methyl-N-[(1-methyl-1,2,4-triazol-3-yl)methyl]imidazo[1,5-b]pyridazin-4-amine] |
| 200 nM | 180 nM | 20 nM | CCOc1ncccc1-c1cc(NCc2cccc(C)n2)c2c(C(C)C)nn(C)c2n1 [Example 42, 6-(2-ethoxy-3-pyridyl)-3-isopropyl-1-methyl-N-[(6-methyl-2-pyridyl)methyl]pyrazolo[3,4-b]pyridin-4-amine] |
| 46 nM | 31 nM | 5.1 nM | CC(C)c1nn(C)c2nc(-c3cccs3)cc(NCc3ncn(C)n3)c12 [Example 65, 3-isopropyl-1-methyl-N-[(1-methyl-1,2,4-triazol-3-yl)methyl]-6-(2-thienyl)pyrazolo[3,4-b]pyridin-4-amine] |
| 3.8 nM | 2.7 nM | 0.29 nM | CCCOc1ncccc1-c1cc(NCc2cn(C)cn2)c2c(C(C)C)nn(C)c2n1 [Example 34, 3-isopropyl-1-methyl-N-[(1-methylimidazol-4-yl)methyl]-6-(2-propoxy-3-pyridyl)pyrazolo[3,4-b]pyridin-4-amine] |
| 25 nM | 27 nM | 3.4 nM | CCOc1ncccc1-c1cc(NCc2cc(OC)ccn2)c2c(C(C)C)nn(C)c2n1 [Example 39, 6-(2-ethoxy-3-pyridyl)-3-isopropyl-N-[(4-methoxy-2-pyridyl)methyl]-1-methyl-pyrazolo[3,4-b]pyridin-4-amine] |
| 6.5 nM | 91 nM | 22 nM | COc1nccnc1-c1cc(NCc2ncn(C)n2)c2c(C(C)C)nn(C)c2n1 [Example 57, 3-isopropyl-6-(3-methoxypyrazin-2-yl)-1-methyl-N-((1-methyl-1H-1,2,4-triazol-3-yl)methyl)-1H-pyrazolo[3,4-b]pyridin-4-amine] |
| 39 nM | 27 nM | 3.7 nM | CCOc1nnccc1-c1cc(NCc2ncn(C)n2)c2c(C(C)C)nn(C)c2n1 [Example 66, 6-(3-ethoxypyridazin-4-yl)-3-isopropyl-1-methyl-N-[(1-methyl-1,2,4-triazol-3-yl)methyl]pyrazolo[3,4-b]pyridin-4-amine] |
| 60 nM | 53 nM | 10 nM | CCOc1ncccc1-c1cc(NCc2cnc(C)o2)c2c(C(C)C)nn(C)c2n1 [Example 27, 6-(2-ethoxy-3-pyridyl)-3-isopropyl-1-methyl-N-[(2-methyloxazol-5-yl)methyl]pyrazolo[3,4-b]pyridin-4-amine] |
| 25 nM | 24 nM | 5.2 nM | CCOc1nnccc1-c1cc(NCc2cnn(C)c2)c2c(C(C)C)nc(C)n2n1 [Example 69, 2-(3-ethoxypyridazin-4-yl)-5-isopropyl-7-methyl-N-[(1-methylpyrazol-4-yl)methyl]imidazo[1,5-b]pyridazin-4-amine] |

Second part, the molecule before the results:

| Compound | IC50 (PDE1C) | IC50 (PDE1A) | IC50 (PDE1B) |
| --- | --- | --- | --- |
| CCOc1ncccc1-c1cc(NCc2noc(C)n2)c2c(C(C)C)nc(C)n2n1 [Example 12, 2-(2-ethoxy-3-pyridyl)-5-isopropyl-7-methyl-N-[(5-methyl-1,2,4-oxadiazol-3-yl)methyl]imidazo[1,5-b]pyridazin-4-amine] | 4 nM | 3.6 nM | 0.35 nM |
| CCOc1ncccc1-c1cc(NCc2cc[nH]n2)c2c(C(C)C)nc(C)n2n1 [Example 10, 2-(2-ethoxy-3-pyridyl)-5-isopropyl-7-methyl-N-(1H-pyrazol-3-ylmethyl)imidazo[1,5-b]pyridazin-4-amine] | 13 nM | 15 nM | 1.6 nM |
| CCOc1ncccc1-c1cc(NCc2cccc(OC)n2)c2c(C(C)C)nn(C)c2n1 [Example 41, 6-(2-ethoxy-3-pyridyl)-3-isopropyl-N-[(6-methoxy-2-pyridyl)methyl]-1-methyl-pyrazolo[3,4-b]pyridin-4-amine] | 560 nM | 440 nM | 110 nM |
| CCOc1ncccc1-c1cc(NCc2ccnc(OC)c2)c2c(C(C)CC)nc(C)n2n1 (single isomer, unassigned; (-)) [Example 54, (−)-2-(2-ethoxy-3-pyridyl)-N-[(2-methoxy-4-pyridyl)methyl]-7-methyl-5-[1-methylpropyl]imidazo[1,5-b]pyridazin-4-amine] | 4.4 nM | 9.6 nM | 1.8 nM |
| CCOc1ncccc1-c1cc(NCc2ncn(C)n2)c2c(C(C)CC)nc(C)n2n1 (single isomer, unassigned; (-)) [Example 49, (−)-2-(2-ethoxy-3-pyridyl)-7-methyl-N-[(1-methyl-1,2,4-triazol-3-yl)methyl]-5-[1-methylpropyl]imidazo[1,5-b]pyridazin-4-amine] | 7.6 nM | 14 nM | 1.4 nM |
| CCOc1ncccc1-c1cc(NCc2cccc3cncn23)c2c(C(C)C)nc(C)n2n1 [Example 78, 2-(2-ethoxy-3-pyridyl)-N-(imidazo[1,5-a]pyridin-5-ylmethyl)-5-isopropyl-7-methyl-imidazo[1,5-b]pyridazin-4-amine] | 39 nM | 61 nM | 5.5 nM |
| CCOc1ncccc1-c1cc(NCc2cccnc2C(F)(F)F)c2c(C(C)C)nc(C)n2n1 [Example 80, 2-(2-ethoxy-3-pyridyl)-5-isopropyl-7-methyl-N-[[2-(trifluoromethyl)-3-pyridyl]methyl]imidazo[1,5-b]pyridazin-4-amine] | 72 nM | 74 nM | 15 nM |
| CCOc1ncccc1-c1cc(NCc2ccnc(OC)c2)c2c(C(C)C)nc(C)n2n1 [Example 15, 2-(2-ethoxy-3-pyridyl)-5-isopropyl-N-[(2-methoxy-4-pyridyl)methyl]-7-methyl-imidazo[1,5-b]pyridazin-4-amine] | 9 nM | 7.3 nM | 1.7 nM |
| COc1ncncc1-c1cc(NCc2ncn(C)n2)c2c(C(C)C)nn(C)c2n1 [Example 64, 3-isopropyl-6-(4-methoxypyrimidin-5-yl)-1-methyl-N-[(1-methyl-1,2,4-triazol-3-yl)methyl]pyrazolo[3,4-b]pyridin-4-amine] | 2.9 nM | 66 nM | 13 nM |
| CCOc1ncccc1-c1cc(NCc2ncccn2)c2c(C(C)C)nc(C)n2n1 [Example 75, 2-(2-ethoxy-3-pyridyl)-5-isopropyl-7-methyl-N-(pyrimidin-2-ylmethyl)imidazo[1,5-b]pyridazin-4-amine] | 24 nM | 11 nM | 0.13 nM |
| CCOc1ncccc1-c1cc(NCc2cncc(OC)c2)c2c(C(C)C)nc(C)n2n1 [Example 14, 2-(2-ethoxy-3-pyridyl)-5-isopropyl-N-[(5-methoxy-3-pyridyl)methyl]-7-methyl-imidazo[1,5-b]pyridazin-4-amine] | 5.1 nM | 6.2 nM | 1.5 nM |
